From patent US6770597B2, “Benzohydrazide derivatives as herbicides and desiccant compositions containing them” (Ishihara Sangyo Kaisha, Ltd., priority 2002, dated 2004)

Key:
Type in all cases: in vivo
[1] = test system: upland rice (Oryza sp., var.Cocodrie, RICE); experiment: Greenhouse herbicide screen, pre-emerge application, crop damage rating; conditions: PRE emergent, 14 days after application, rating scale 0-100
Source text: (§1) A standard greenhouse herbicide activity screening system was used to evaluate the herbicidal efficacy and crop safety of these test compounds. Seven broadleaf weed species including redroot pigweed (Amaranthus retrofiexus, AMARE), velvetleaf (Abutilon theophrasti, ABUTH), sicklepod (Cassia obtusifolia, CASOB), ivyleaf morningglory (Ipomoea hederacea, IPOHE), lambsquarters (Chenopodium album, CHEAL), common ragweed (Ambrosia artemisiifolia L., AMBEL), and cocklebur (Xanthium strumarium, XANST) were used as test species. Four grass weed species including green foxtail (Setaria viridis, SETVI), barnyardgrass (Echinochloa crus-galli, ECHCG), johnsongrass (Sorghum halepense, SORHA), and large crabgrass (Digitaria sanguinalis, DIGSA) were also used. In addition, four crop species, field corn (Zea mays L., var. Dekalb 535, CORN), soybean (Glycine max L., var. Pella 86, SOY), upland rice (Oryza sp., var.Cocodrie, RICE) and wheat (Triticum aestivum L.) were included.
(§2) All plants were grown in 10 cm square plastic pots which were filled with a sandy loam soil mix. For pre-emerge tests, seeds were planted one day prior to application of the test compounds. For post-emerge tests, seeds were planted 8-21 days prior to the test to allow emergence and good foliage development prior to application of the test substances. At the time of the post-emerge application, plants of all species were usually at the 2-3 leaf stage of development.
(§3) All test compounds were dissolved in acetone and applied to the test units in a volume of 187 l/ha. Test materials were applied at rates ranging from 15 g ai/ha to 1000 g ai/ha using a track sprayer equipped with a TJ8001E even flow flat fan spray nozzle. Plants were arranged on a shelf so that the top of the canopy (post-emerge) or top of the soil surface (pre-emerge) was 40-45 cm below the nozzle. Pressurized air was used to force the test solution through the nozzle as it was mechanically advanced (via electrically driven chain drive) over the top of all test plants/pots. This application simulates a typical commercial field herbicide application.
(§4) Pre-emergence tests were top watered immediately after treatment to incorporate the test materials, then routinely top-watered for normal growth. Post-emerge test units were always bottom-watered.
(§5) At 14 days after application of the test materials, phytotoxicity ratings were recorded. A rating scale of 0-100 was used as previously described in Research Methods in Weed Science, 2nd edition, B. Truelove, Ed., Southern Weed Science Society, Auburn University, Auburn, Ala., 1977. Briefly, “0” corresponds to no damage and “100” corresponds to complete death of all plants in the test unit. This scale was used both to determine efficacy against weed species and damage to crop species. Herbicide activity data for various compounds of this invention, which are shown by compound No. in Tables 1-12, are shown in Tables 13 and 14.

[2] = test system: field corn (Zea mays L., var. Dekalb 535, CORN); experiment: as above; conditions: PRE emergent, 14 days after application, rating scale 0-100
Source text: as §1, §2, §3, §4, §5

[3] = test system: upland rice (Oryza sp., var.Cocodrie, RICE); experiment: Greenhouse herbicide screen, post-emerge application, crop damage rating; conditions: POST emergent, 14 days after application, scale 0-100
Source text: as §1, §2, §3, §4, §5

[4] = test system: field corn (Zea mays L., var. Dekalb 535, CORN); experiment: as above; conditions: POST emergent, 14 days after application, scale 0-100
Source text: as §1, §2, §3, §4, §5

[5] = test system: green foxtail (Setaria viridis, SETVI); experiment: Greenhouse herbicide screen, post-emerge application, phytotoxicity rating; conditions: POST emergent, 14 days after application, scale 0-100
Source text: as §1, §2, §3, §4, §5

[6] = test system: velvetleaf (Abutilon theophrasti, ABUTH); experiment: as above; conditions: POST emergent, 14 days after application, scale 0-100
Source text: as §1, §2, §3, §4, §5

[7] = test system: lambsquarters (Chenopodium album, CHEAL); experiment: as above; conditions: POST emergent, 14 days after application, scale 0-100
Source text: as §1, §2, §3, §4, §5

[8] = test system: ivyleaf morningglory (Ipomoea hederacea, IPOHE); experiment: as above; conditions: POST emergent, 14 days after application, scale 0-100
Source text: as §1, §2, §3, §4, §5

[9] = test system: cocklebur (Xanthium strumarium, XANST); experiment: as above; conditions: POST emergent, 14 days after application, scale 0-100
Source text: as §1, §2, §3, §4, §5

[10] = test system: barnyardgrass (Echinochloa crus-galli, ECHCG); experiment: as above; conditions: POST emergent, 14 days after application, scale 0-100
Source text: as §1, §2, §3, §4, §5

[11] = test system: redroot pigweed (Amaranthus retrofiexus, AMARE); experiment: as above; conditions: POST emergent, 14 days after application
Source text: as §1, §2, §3, §4, §5

[12] = test system: large crabgrass (Digitaria sanguinalis, DIGSA); experiment: as above; conditions: POST emergent, 14 days after application, scale 0-100
Source text: as §1, §2, §3, §4, §5

[13] = test system: sicklepod (Cassia obtusifolia, CASOB); experiment: as above; conditions: POST emergent, 14 days after application, scale 0-100
Source text: as §1, §2, §3, §4, §5

[14] = test system: johnsongrass (Sorghum halepense, SORHA); experiment: as above; conditions: POST emergent, 14 days after application, scale 0-100
Source text: as §1, §2, §3, §4, §5

[15] = test system: common ragweed (Ambrosia artemisiifolia L., AMBEL); experiment: as above; conditions: POST emergent, 14 days after application, scale 0-100
Source text: as §1, §2, §3, §4, §5

[16] = test system: green foxtail (Setaria viridis, SETVI); experiment: Greenhouse herbicide screen, pre-emerge application, phytotoxicity rating; conditions: PRE emergent, 14 days after application, rating scale 0-100
Source text: as §1, §2, §3, §4, §5

[17] = test system: velvetleaf (Abutilon theophrasti, ABUTH); experiment: as above; conditions: PRE emergent, 14 days after application, rating scale 0-100
Source text: as §1, §2, §3, §4, §5

[18] = test system: lambsquarters (Chenopodium album, CHEAL); experiment: as above; conditions: PRE emergent, 14 days after application, rating scale 0-100
Source text: as §1, §2, §3, §4, §5

[19] = test system: ivyleaf morningglory (Ipomoea hederacea, IPOHE); experiment: as above; conditions: PRE emergent, 14 days after application, rating scale 0-100
Source text: as §1, §2, §3, §4, §5

[20] = test system: cocklebur (Xanthium strumarium, XANST); experiment: as above; conditions: PRE emergent, 14 days after application, rating scale 0-100
Source text: as §1, §2, §3, §4, §5

[21] = test system: barnyardgrass (Echinochloa crus-galli, ECHCG); experiment: as above; conditions: PRE emergent, 14 days after application, rating scale 0-100
Source text: as §1, §2, §3, §4, §5

[22] = test system: redroot pigweed (Amaranthus retrofiexus, AMARE); experiment: as above; conditions: PRE emergent, 14 days after application, rating scale 0-100
Source text: as §1, §2, §3, §4, §5

[23] = test system: large crabgrass (Digitaria sanguinalis, DIGSA); experiment: as above; conditions: PRE emergent, 14 days after application, rating scale 0-100
Source text: as §1, §2, §3, §4, §5

[24] = test system: sicklepod (Cassia obtusifolia, CASOB); experiment: as above; conditions: PRE emergent, 14 days after application, rating scale 0-100
Source text: as §1, §2, §3, §4, §5

[25] = test system: johnsongrass (Sorghum halepense, SORHA); experiment: as above; conditions: PRE emergent, 14 days after application, rating scale 0-100
Source text: as §1, §2, §3, §4, §5

[26] = test system: common ragweed (Ambrosia artemisiifolia L., AMBEL); experiment: as above; conditions: PRE emergent, 14 days after application, rating scale 0-100
Source text: as §1, §2, §3, §4, §5

CN(C)NC(=O)c1cc(-n2c(=O)cc(C(F)(F)F)n(C)c2=O)ccc1Cl [Compound 1-4]
crop damage rating RICE ([1]; 63 g ai/ha): 0 | crop damage rating RICE ([1]; 250 g ai/ha): 8 | crop damage rating CORN ([2]; 63 g ai/ha): 35 | crop damage rating CORN ([2]; 250 g ai/ha): 75 | crop damage rating RICE ([3]; 63 g ai/ha): 10 | crop damage rating RICE ([3]; 250 g ai/ha): 65 | crop damage rating CORN ([4]; 63 g ai/ha): 65 | crop damage rating CORN ([4]; 250 g ai/ha): 99 | phytotoxicity rating SETVI ([5]; 63 g ai/ha): 65 | phytotoxicity rating SETVI ([5]; 250 g ai/ha): 75 | phytotoxicity rating ABUTH ([6]; 63 g ai/ha): 100 | phytotoxicity rating ABUTH ([6]; 250 g ai/ha): 100 | phytotoxicity rating CHEAL ([7]; 63 g ai/ha): 99 | phytotoxicity rating CHEAL ([7]; 250 g ai/ha): 100 | phytotoxicity rating IPOHE ([8]; 63 g ai/ha): 100 | phytotoxicity rating IPOHE ([8]; 250 g ai/ha): 100 | phytotoxicity rating XANST ([9]; 63 g ai/ha): 100 | phytotoxicity rating XANST ([9]; 250 g ai/ha): 100 | phytotoxicity rating ECHCO ([10]; 63 g ai/ha): 65 | phytotoxicity rating ECHCO ([10]; 250 g ai/ha): 95 | phytotoxicity rating AMARE ([11]; 63 g ai/ha, scale 0-100 (0 no damage, 100 complete death)): 100 | phytotoxicity rating AMARE ([11]; 250 g ai/ha, scale 0-100): 100 | phytotoxicity rating DIGSA ([12]; 63 g ai/ha): 35 | phytotoxicity rating DIGSA ([12]; 250 g ai/ha): 55 | phytotoxicity rating CASOB ([13]; 63 g ai/ha): 70 | phytotoxicity rating CASOB ([13]; 250 g ai/ha): 80 | phytotoxicity rating SORHA ([14]; 63 g ai/ha): 50 | phytotoxicity rating SORHA ([14]; 250 g ai/ha): 80 | phytotoxicity rating AMBEL ([15]; 63 g ai/ha): 80 | phytotoxicity rating AMBEL ([15]; 250 g ai/ha): 100 | phytotoxicity rating SETVI ([16]; 63 g ai/ha): 0 | phytotoxicity rating SETVI ([16]; 250 g ai/ha): 35 | phytotoxicity rating ABUTH ([17]; 63 g ai/ha): 30 | phytotoxicity rating ABUTH ([17]; 250 g ai/ha): 99 | phytotoxicity rating CHEAL ([18]; 63 g ai/ha): 15 | phytotoxicity rating CHEAL ([18]; 250 g ai/ha): 100 | phytotoxicity rating IPOHE ([19]; 63 g ai/ha): 75 | phytotoxicity rating IPOHE ([19]; 250 g ai/ha): 100 | phytotoxicity rating XANST ([20]; 63 g ai/ha): 0 | phytotoxicity rating XANST ([20]; 250 g ai/ha): 60 | phytotoxicity rating ECHCG ([21]; 63 g ai/ha): 0 | phytotoxicity rating ECHCG ([21]; 250 g ai/ha): 40 | phytotoxicity rating AMARE ([22]; 63 g ai/ha): 40 | phytotoxicity rating AMARE ([22]; 250 g ai/ha): 95 | phytotoxicity rating DIGSA ([23]; 63 g ai/ha): 0 | phytotoxicity rating DIGSA ([23]; 250 g ai/ha): 60 | phytotoxicity rating CASOB ([24]; 63 g ai/ha): 0 | phytotoxicity rating CASOB ([24]; 250 g ai/ha): 90 | phytotoxicity rating SORHA ([25]; 63 g ai/ha): 0 | phytotoxicity rating SORHA ([25]; 250 g ai/ha): 35 | phytotoxicity rating AMBEL ([26]; 63 g ai/ha): 0 | phytotoxicity rating AMBEL ([26]; 250 g ai/ha): 40
